Data from patent publication US6423689B1, “Peptidyl calcium channel blockers” (Warner-Lambert Company, priority 1997, dated 2002).

Molecular target: T1, N-type Ca2+ channels in IMR-32 cells (Homo sapiens, UniProt Q00975)
T1 construct: host or cells: IMR-32 cells, differentiated with dibutyryl cAMP and bromodeoxyuridine
Assay: Inhibition of N-type calcium flux in IMR-32 cells (Indo-1 fluorescence, nitrendipine present)
Format: cell-based
Protocol: Measurement of N-type Ca^2+ Channel Blocking Potencies of Compounds in IMR-32 Cells Using the Fluorescent Ca^2+ Indicator Indo-1
IMR-32 cells are a human tumoral cell line of neural origin. […] Calcium flux into these cells may be induced by stimulation with elevated potassium concentrations. The L-channel component of calcium flux may be blocked by adding 5 μM nitrendipine. The remaining component of calcium entry into the IMR-32 cells is due to calcium flux through N-type calcium channels. Intracellular calcium concentrations are measured using the fluorescent calcium indicator Indo 1. The effect of drug concentration on calcium uptake is studied.
The IMR-32 cell line was obtained from the American Type Culture Collection (Rockville, Md.). Cells were grown in Eagle's Minimum Essential Medium with Eagle's salts supplemented with 10% fetal bovine serum, 2 mM L-Gln and antibiotic/antimycotic mixture (Gibco). […] After 7 to 13 days of differentiation, cells were detached using 0.5 mM EDTA and loaded with 5 μM Indo-1 acetoxymethyl ester (Molecular Probes, Eugene, OR) at […] for 45 minutes. Loaded cells were washed twice, resuspended (˜10^7 cells/mL) in assay buffer (10 mM HEPES/Tris pH 7.4 in Hank's Balanced Salt Solution without bicarbonate or phenol red containing 0.5% bovine serum albumin) and kept on ice until use. Fluorescence measurements were carried out in a Photon Technology International (PTI, South Brunswick, N.J.) Model RF-F3004 spectrofluorometer with dual emission monochromators using excitation at 350 nm and emission at 400 and 490 nm. The instrument was equipped with a thermostated cuvette holder with stirring capabilities as well as with a computer-controlled pump which allowed for reagent addition during measurement. Instrument control and data collection was done by PTI's OSCAR software running on an IBM compatible computer. […] Samples were incubated for 10 minutes at 30° C. and then aliquoted into three 10×10 mm disposable acrylic cuvettes. Emission signals at 400 and 490 nm were acquired from each cuvette at 30° C. for 50 seconds. At 20 seconds after the start of reading, cells were depolarized by the addition of 160 μL of stimulation solution (1M KCl, 68 mM CaCl2) to the cuvette via the computer-controlled pump. Ratio of dual emission signals (400 nm/490 nm), which is proportional to intracellular Ca^2+ concentration, was plotted against time, and the difference between maximal response after stimulation and basal value (before stimulation) was determined. Values obtained in this way were plotted as a function of drug concentration. IC50 values of test compounds were calculated by fitting a four-parameter logistic function to the data using the least squares method.

T1 sequence (Q00975 whole entry): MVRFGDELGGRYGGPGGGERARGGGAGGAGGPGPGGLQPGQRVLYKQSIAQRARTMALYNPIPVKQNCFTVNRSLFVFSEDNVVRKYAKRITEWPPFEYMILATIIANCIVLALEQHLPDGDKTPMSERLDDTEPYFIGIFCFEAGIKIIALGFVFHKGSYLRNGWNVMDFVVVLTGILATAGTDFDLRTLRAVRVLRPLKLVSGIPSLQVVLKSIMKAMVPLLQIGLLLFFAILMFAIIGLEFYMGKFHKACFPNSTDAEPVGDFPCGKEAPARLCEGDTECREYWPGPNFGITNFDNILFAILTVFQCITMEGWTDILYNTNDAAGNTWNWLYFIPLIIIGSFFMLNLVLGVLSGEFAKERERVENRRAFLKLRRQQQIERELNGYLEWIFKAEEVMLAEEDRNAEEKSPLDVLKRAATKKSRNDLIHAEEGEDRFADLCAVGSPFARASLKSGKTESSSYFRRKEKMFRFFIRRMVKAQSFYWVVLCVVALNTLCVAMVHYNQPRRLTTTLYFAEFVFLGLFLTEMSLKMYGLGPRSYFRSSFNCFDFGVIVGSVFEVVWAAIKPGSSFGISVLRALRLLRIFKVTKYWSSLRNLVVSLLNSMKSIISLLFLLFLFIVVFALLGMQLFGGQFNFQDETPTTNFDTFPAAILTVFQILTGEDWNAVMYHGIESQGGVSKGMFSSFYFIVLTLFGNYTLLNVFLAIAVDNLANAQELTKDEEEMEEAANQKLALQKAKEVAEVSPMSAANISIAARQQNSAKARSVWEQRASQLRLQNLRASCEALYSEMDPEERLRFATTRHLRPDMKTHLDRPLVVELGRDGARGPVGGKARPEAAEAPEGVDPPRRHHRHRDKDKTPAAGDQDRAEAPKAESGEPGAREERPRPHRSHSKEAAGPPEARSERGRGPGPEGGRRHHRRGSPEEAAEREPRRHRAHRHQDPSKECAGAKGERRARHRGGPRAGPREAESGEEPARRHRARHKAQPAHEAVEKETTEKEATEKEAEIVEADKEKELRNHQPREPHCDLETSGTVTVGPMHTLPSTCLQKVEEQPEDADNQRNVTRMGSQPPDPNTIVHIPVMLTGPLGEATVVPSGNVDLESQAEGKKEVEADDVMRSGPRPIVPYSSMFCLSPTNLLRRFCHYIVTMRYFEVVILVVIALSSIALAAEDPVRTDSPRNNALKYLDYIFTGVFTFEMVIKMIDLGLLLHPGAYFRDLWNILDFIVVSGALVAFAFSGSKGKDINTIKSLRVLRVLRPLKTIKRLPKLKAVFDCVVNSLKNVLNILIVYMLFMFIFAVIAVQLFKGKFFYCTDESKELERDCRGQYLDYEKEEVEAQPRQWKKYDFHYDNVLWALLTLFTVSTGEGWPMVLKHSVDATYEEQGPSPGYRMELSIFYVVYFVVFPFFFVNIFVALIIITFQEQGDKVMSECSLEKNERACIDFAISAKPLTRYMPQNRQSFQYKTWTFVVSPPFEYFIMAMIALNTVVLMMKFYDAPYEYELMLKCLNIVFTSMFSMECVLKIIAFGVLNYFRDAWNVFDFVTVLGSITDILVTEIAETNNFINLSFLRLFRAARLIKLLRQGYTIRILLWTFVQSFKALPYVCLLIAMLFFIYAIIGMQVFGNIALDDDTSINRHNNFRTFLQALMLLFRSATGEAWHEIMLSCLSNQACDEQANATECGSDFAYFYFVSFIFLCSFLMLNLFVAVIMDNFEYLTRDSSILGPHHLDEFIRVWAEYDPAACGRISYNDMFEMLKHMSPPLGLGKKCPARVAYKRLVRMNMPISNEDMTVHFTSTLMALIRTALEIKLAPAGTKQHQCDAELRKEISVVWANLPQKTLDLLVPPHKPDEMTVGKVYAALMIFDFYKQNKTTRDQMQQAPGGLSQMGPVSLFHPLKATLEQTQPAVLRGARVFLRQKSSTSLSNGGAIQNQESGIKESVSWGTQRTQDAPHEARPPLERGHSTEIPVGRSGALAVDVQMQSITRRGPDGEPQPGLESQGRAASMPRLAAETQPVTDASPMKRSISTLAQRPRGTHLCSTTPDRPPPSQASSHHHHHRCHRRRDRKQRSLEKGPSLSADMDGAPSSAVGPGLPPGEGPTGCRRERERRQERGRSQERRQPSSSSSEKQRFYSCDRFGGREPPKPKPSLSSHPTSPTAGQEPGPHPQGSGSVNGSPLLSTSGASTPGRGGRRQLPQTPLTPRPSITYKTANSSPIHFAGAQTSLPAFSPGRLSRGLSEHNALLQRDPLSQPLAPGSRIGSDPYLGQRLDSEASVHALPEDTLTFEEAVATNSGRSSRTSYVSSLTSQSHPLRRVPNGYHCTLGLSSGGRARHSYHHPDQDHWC
T1 sequence (P54289 25-956 partner limits assumed): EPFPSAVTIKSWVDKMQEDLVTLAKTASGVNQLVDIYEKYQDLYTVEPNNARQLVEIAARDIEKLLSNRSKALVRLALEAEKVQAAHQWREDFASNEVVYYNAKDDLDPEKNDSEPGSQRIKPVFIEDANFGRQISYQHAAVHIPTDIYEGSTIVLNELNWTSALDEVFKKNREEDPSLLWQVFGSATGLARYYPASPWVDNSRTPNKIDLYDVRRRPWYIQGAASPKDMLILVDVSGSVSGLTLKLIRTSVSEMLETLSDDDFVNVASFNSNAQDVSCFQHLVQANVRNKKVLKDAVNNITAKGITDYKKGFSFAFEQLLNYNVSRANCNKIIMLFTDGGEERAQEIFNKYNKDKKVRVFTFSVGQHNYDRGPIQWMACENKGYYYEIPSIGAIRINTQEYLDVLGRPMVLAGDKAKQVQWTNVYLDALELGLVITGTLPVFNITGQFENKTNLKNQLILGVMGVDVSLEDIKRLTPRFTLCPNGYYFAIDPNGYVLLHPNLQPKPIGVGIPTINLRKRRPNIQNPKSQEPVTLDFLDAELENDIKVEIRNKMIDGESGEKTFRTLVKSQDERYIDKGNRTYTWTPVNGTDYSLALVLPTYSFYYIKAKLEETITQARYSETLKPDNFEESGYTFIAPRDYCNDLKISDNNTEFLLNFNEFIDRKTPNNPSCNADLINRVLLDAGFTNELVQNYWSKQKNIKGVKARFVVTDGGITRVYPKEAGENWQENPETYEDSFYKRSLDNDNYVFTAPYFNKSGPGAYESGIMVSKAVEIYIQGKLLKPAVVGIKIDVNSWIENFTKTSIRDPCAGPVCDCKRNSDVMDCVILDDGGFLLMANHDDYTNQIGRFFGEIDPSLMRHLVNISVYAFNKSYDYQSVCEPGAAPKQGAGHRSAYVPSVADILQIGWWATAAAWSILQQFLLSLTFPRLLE
T1 sequence (P54289 957-1103 partner limits assumed): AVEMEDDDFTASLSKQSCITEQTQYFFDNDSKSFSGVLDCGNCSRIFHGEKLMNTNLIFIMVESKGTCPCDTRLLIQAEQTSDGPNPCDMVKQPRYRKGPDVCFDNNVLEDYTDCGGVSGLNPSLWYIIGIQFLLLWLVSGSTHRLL
T1 sequence (P54284 whole entry partner): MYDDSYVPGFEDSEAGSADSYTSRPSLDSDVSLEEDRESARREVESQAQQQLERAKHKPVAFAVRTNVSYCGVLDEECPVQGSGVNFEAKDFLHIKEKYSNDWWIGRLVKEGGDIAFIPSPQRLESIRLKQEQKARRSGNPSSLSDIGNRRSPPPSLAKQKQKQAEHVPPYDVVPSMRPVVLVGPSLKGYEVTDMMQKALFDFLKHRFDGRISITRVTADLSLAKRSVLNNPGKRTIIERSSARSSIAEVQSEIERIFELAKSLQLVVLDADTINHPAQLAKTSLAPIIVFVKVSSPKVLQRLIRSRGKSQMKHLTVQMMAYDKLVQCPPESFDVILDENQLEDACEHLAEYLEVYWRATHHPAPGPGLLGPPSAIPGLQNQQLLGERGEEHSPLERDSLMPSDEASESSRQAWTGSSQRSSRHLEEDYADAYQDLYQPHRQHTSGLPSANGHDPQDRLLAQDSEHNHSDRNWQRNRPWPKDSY

Row | SMILES | Inhibition of Calcium Flux in IMR-32 Cells % Inhibition at 1 μM | Inhibition of Calcium Flux in IMR-32 Cells % Inhibition at 10 μM
1 | CNC(=S)N[C@@H](CC(C)C)C(=O)N[C@@H](Cc1ccc(OCc2ccccc2)cc1)C(=O)OC(C)(C)C (relative stereo) [Example 51, [S-(R*,R*)]-3-(4-Benzyloxy-phenyl)-2-[4-methyl-2-(3-methyl-thioureido)-pentanoylamino]-propionic acid tert-butyl ester] | 32% | 85%
2 | CC(C)C[C@H](NC(=O)N1CCCCCC1)C(=O)N[C@@H](Cc1ccc(OCc2c(Cl)cccc2Cl)cc1)C(=O)NC(C)(C)C (relative stereo) [Example 52, [S-(R*,R*)]-Azepane-1-carboxylic acid (1-{1-tert-butylcarbamoyl-2-[4-(2,6-dichloro-benzyloxy)-phenyl]-ethylcarbamoyl}-3-methyl-butyl)-amide] | 56% | 76%
3 | CC(C)C[C@H](NC(=O)Nc1ccccc1)C(=O)N[C@@H](Cc1ccc(OCc2ccccc2)cc1)C(=O)OC(C)(C)C (relative stereo) [Example 54, [S-(R*,R*)]-3-(4-Benzyloxy-phenyl)-2-[4-methyl-2-(3-phenyl-ureido)-pentanoylamino]propionic acid tert-butyl ester] | 44% | 63%
4 | CC(C)C[C@H](NC(=O)Nc1ccc([N+](=O)[O-])cc1)C(=O)N[C@@H](Cc1ccc(OCc2ccccc2)cc1)C(=O)OC(C)(C)C (relative stereo) [Example 55, [S-(R*,R*)]-3-(4-Benzyloxy-phenyl)-2-{4-methyl-2-[3-(4-nitro-phenyl)-ureido]pentanoylamino}-propionic acid tert-butyl ester] | 14% | 46%
5 | CC(C)C[C@H](NC(=O)NC1CCCCC1)C(=O)N[C@@H](Cc1ccc(OCc2ccccc2)cc1)C(=O)OC(C)(C)C (relative stereo) [Example 56, [S-(R*,R*)]-3-(4-Benzyloxy-phenyl)-2-[2-(3-cyclohexyl-ureido)-4-methyl-pentanoylamino]propionic acid tert-butyl ester] | 24% | 56%
6 | COc1cccc(NC(=O)N[C@@H](CC(C)C)C(=O)N[C@@H](Cc2ccc(OCc3ccccc3)cc2)C(=O)OC(C)(C)C)c1 (relative stereo) [Example 57, [S-(R*,R*)]-3-(4-Benzyloxy-phenyl)-2-{2-[3-(3-methoxy-phenyl)-ureido]-4-methyl-pentanoylamino}-propionic acid tert-butyl ester] | 34% | 74%
7 | Cc1ccc(NC(=O)N[C@@H](CC(C)C)C(=O)N[C@@H](Cc2ccc(OCc3ccccc3)cc2)C(=O)OC(C)(C)C)cc1 (relative stereo) [Example 58, [S-(R*,R*)]-3-(4-Benzyloxy-phenyl)-2-[4-methyl-2-(3-p-tolyl-ureido)-pentanoylamino]propionic acid tert-butyl ester] | 52% | 35%
8 | CCCCNC(=O)N[C@@H](CC(C)C)C(=O)N[C@@H](Cc1ccc(OCc2ccccc2)cc1)C(=O)OC(C)(C)C (relative stereo) [Example 59, [S-(R*,R*)]-3-(4-Benzyloxy-phenyl)-2-[2-(3-butyl-ureido)-4-methyl-pentanoylamino]-propionic acid tert-butyl ester] | 41% | 61%
9 | CC(C)C[C@H](NC(=O)NCc1ccccc1)C(=O)N[C@@H](Cc1ccc(OCc2ccccc2)cc1)C(=O)OC(C)(C)C (relative stereo) [Example 60, [S-(R*,R*)]-3-(4-Benzyloxy-phenyl)-2-[2-(3-benzyl-ureido)-4-methyl-pentanoylamino]-propionic acid tert-butyl ester] | 24% | 
10 | Cc1ccccc1NC(=O)N[C@@H](CC(C)C)C(=O)N[C@@H](Cc1ccc(OCc2ccccc2)cc1)C(=O)OC(C)(C)C (relative stereo) [Example 61, [S-(R*,R*)]-3-(4-Benzyloxy-phenyl)-2-[4-methyl-2-(3-o-tolyl-ureido)-pentanoylamino]-propionic acid tert-butyl ester] | 34% | 
11 | Cc1cccc(C)c1NC(=O)N[C@@H](CC(C)C)C(=O)N[C@@H](Cc1ccc(OCc2ccccc2)cc1)C(=O)OC(C)(C)C (relative stereo) [Example 62, [S-(R*,R*)]-3-(4-Benzyloxy-phenyl)-2-{2-[3-(2,6-dimethyl-phenyl)-ureido]-4-methyl-pentanoylamino}-propionic acid tert-butyl ester] | 29% | 
12 | CSc1ccc(NC(=O)N[C@@H](CC(C)C)C(=O)N[C@@H](Cc2ccc(OCc3ccccc3)cc2)C(=O)OC(C)(C)C)cc1 (relative stereo) [Example 64, [S-(R*,R*)]-3-(4-Benzyloxy-phenyl)-2-{4-methyl-2-[3-(4-methylsulfanyl-phenyl)-ureido]-pentanoylamino}-propionic acid tert-butyl ester] | 31% | 
13 | CC(C)C[C@H](NC(=O)Nc1ccc(Oc2ccccc2)cc1)C(=O)N[C@@H](Cc1ccc(OCc2ccccc2)cc1)C(=O)OC(C)(C)C (relative stereo) [Example 65, [S-(R*,R*)]-3-(4-Benzyloxy-phenyl)-2-{4-methyl-2-[3-(4-phenoxy-phenyl)-ureido]pentanoylamino}-propionic acid tert-butyl ester] | 28% | 
14 | COc1ccc(NC(=O)N[C@@H](CC(C)C)C(=O)N[C@@H](Cc2ccc(OCc3ccccc3)cc2)C(=O)OC(C)(C)C)cc1 (relative stereo) [Example 68, [S-(R*,R*)]-3-(4-Benzyloxy-phenyl)-2-{2-[3-(4-methoxy-phenyl)-ureido]-4-methyl-pentanoylamino}-propionic acid tert-butyl ester] | 31% | 
15 | CC(C)C[C@H](NC(=O)Nc1ccc(F)cc1F)C(=O)N[C@@H](Cc1ccc(OCc2ccccc2)cc1)C(=O)OC(C)(C)C (relative stereo) [Example 69, [S-(R*,R*)]-3-(4-Benzyloxy-phenyl)-2-{2-[3-(2,4-difluoro-phenyl)-ureido]-4-methyl-pentanoylamino}-propionic acid tert-butyl ester] | 31% | 
16 | CC(C)C[C@H](NC(=O)Nc1ccc(C(F)(F)F)cc1)C(=O)N[C@@H](Cc1ccc(OCc2ccccc2)cc1)C(=O)OC(C)(C)C (relative stereo) [Example 70, [S-(R*,R*)]-3-(4-Benzyloxy-phenyl)-2-{4-methyl-2-[3-(4-trifluoromethyl-phenyl)-ureido]-pentanoylamino}-propionic acid tert-butyl ester] | 25% | 
17 | COc1ccccc1NC(=O)N[C@@H](CC(C)C)C(=O)N[C@@H](Cc1ccc(OCc2ccccc2)cc1)C(=O)OC(C)(C)C (relative stereo) [Example 71, [S-(R*,R*)]-3-(4-Benzyloxy-phenyl)-2-{2-[3-(2-methoxy-phenyl)-ureido]-4-methyl-pentanoylamino}-propionic acid tert-butyl ester] | 55% | 
18 | Cc1cc(C)cc(NC(=O)N[C@@H](CC(C)C)C(=O)N[C@@H](Cc2ccc(OCc3ccccc3)cc2)C(=O)OC(C)(C)C)c1 (relative stereo) [Example 72, [S-(R*,R*)]-3-(4-Benzyloxy-phenyl)-2-{2-[3-(3,5-dimethyl-phenyl)-ureido]-4-methyl-pentanoylamino}-propionic acid tert-butyl ester] | 31% | 
19 | CC(C)C[C@H](NC(=O)Nc1ccccc1Cl)C(=O)N[C@@H](Cc1ccc(OCc2ccccc2)cc1)C(=O)OC(C)(C)C (relative stereo) [Example 73, [S-(R*,R*)]-3-(4-Benzyloxy-phenyl)-2-{2-[3-(2-chloro-phenyl)-ureido]-4-methylpentanoylamino}-propionic acid tert-butyl ester] | 60% | 
